Data reported in US5973116A, “Compounds for targeting” (Imperial Cancer Research Technology Limited, priority 1993, dated 1999).
Read-outs that look alike come from different tables or passages of the source.

What was measured:
[1] = target: pRAS111 ScFvNP protein (VHNP (G4S)3 VλJ558L, SEQ ID No 3); assay: ELISA-based affinity determinations of pRAS111 ScFvNP protein (methods of Mariani et al 1987 and Hogg et al 1987); format: binding, mouse; details: for Kd: antigen coat
Text: Affinity of pRAS111 ScFv for NIP was estimated firstly by adapting the method of Mariani et al (1987) Molec. Immunol. […] This approximation only holds true if the number of available binding sites per well is sufficiently low that their contribution is insignificant. Determinations of Kapp should approach Kactual as the amount of antigen per well is reduced.
To confirm the accuracy of this approach, similar estimations of K were made using the method of Hogg et al (1987) Molec. Immunol. 24, 797-801) in the absence of competing antigen, by calculating the slope of the linear portion of a plot of A450 /[ScFvNP ] v A450, where A450 /[ScFvNP ]=fKn-fK(A450), A450 is the absorbance at 450 nm, [ScFvNP ] is the concentration of added ScFvNP, n is the concentration of available binding sites and f is the valency of the ScFvNP for NIP. A value of 1 was assigned to f.

[2] = target: ScFv encoded by pRAS111 (ScFvNP, VHNP (G4S)3 VλJ558L, SEQ ID No 3); assay: ELISA binding and competition of pRAS111 ScFv on a NIP15-BSA coat; parameters: species or system mouse; details: read-out: binding affinity for NP, Kd
Description: Filtered bacterial supernatants were applied to wells of a 96-well plate previously coated with […] NIP15 -BSA or […] egg lysozyme, and bound protein was detected by serial incubation with biotinylated Gαmλ antiserum and HRPO-streptavidin conjugate. Colour changes were generated by incubation with ABTS and were monitored at 405 nm.
A soluble protein present in the growth medium of JM109 (DE3)/pRAS111 cultures, but not in cultures of JM109 (DE3), binds NIP15 -BSA, but not lysozyme (FIG. 5). Filtered bacterial growth medium recovered after induction of pRAS111 protein was applied to wells of an ELISA plate coated with 10 μg.ml^-1 NIP15 -BSA (.circle-w/dot.) or 300 μg.ml^-1 hen egg lysozyme (.diamond-solid.). Bound protein was detected by serial incubation with biotinylated Gαmλ (Goat anti-mouse lambda light chain) antisera and horseradish peroxidase conjugated streptavidin diluted in blocking buffer, and colour changes generated by addition of ABTS were monitored at 405 nm. A soluble protein present in the growth medium of JM109(DE3)/pRAS111 cultures, but not in cultures of JM109(DE3), binds NIP15 -BSA, can be competed with NIP15 -BSA (FIG. 6). […] Bound protein was detected by serial incubation with biotinylated Gαmλ antisera and horseradish peroxidase conjugated streptavidin, and colour changes generated by addition of ABTS were monitored at 405 nm.

[3] = concn 5 mg ml^-1 of coating buffer, no competing antigen, f = 1, read-out: K, Hogg et al (1987) (converted)
[4] = concn 5 mg ml^-1 of coating buffer, read-out: K, Mariani et al (1987) (converted)

“NIP4 BSA: low coupling ratio NIP-BSA, 3.7 haptens per protein molecule” gave a Kd [1, 3] of 5.56 nM, a Kd [1, 4] of 4 nM and a Kd ([1]; concn 10 mg ml^-1 of coating buffer, no competing antigen, f = 1, read-out: K, Hogg et al (1987) (converted)) of 8.33 nM. For the same molecule, the Kd ([1]; concn 10 mg ml^-1 of coating buffer, read-out: K, Mariani et al (1987) (converted)) was 3.45 nM.
In the case of O=C(O)Cc1cc(I)c(O)c([N+](=O)[O-])c1 [NIP, 4-hydroxy-3-iodo-5-nitrophenylacetic acid], the “Kapp, affinity for NIP (K)” value ([1]; method of Mariani et al (1987), Ct50 = 1/Kapp, at low amount of antigen per well) is reported as 2-3×10^8 M^-1.
O=C(O)Cc1ccc(O)c([N+](=O)[O-])c1 [NP, 4-hydroxy-3-nitrophenylacetic acid] showed a Kd [2] of 4 nM.
In the case of “NIP16 BSA: high coupling ratio NIP-BSA, 16.4 haptens per protein molecule”, the Kd ([1]; concn 1 mg ml^-1 of coating buffer, no competing antigen, f = 1, read-out: K, Hogg et al (1987) (converted)) is reported as 1.23 nM, the Kd ([1]; concn 1 mg ml^-1 of coating buffer, read-out: K, Mariani et al (1987) (converted)) is reported as 1.22 nM and the Kd [1, 3] is reported as 0.625 nM. For the same molecule, the Kd [1, 4] was 0.4 nM.
“NIP conjugated to BSA: hapten NIP coupled to BSA via NIP-cap-OSu” was tested, and the “affinity for NIP conjugated to BSA” value ([1]; pH 7.4) was 1-3×10^8 M^-1.
